The text below walks through data of patent US20210380994A1, “LACTOCOCCUS LACTIS EXPRESSION SYSTEM FOR DELIVERING PROTEINS EFFICACIOUS FOR THE TREATMENT OF EPITHELIAL BARRIER FUNCTION DISORDERS” (Second Genome, Inc., priority 2018, published 2021).

The test system of data set [1] is HCT8 enterocyte and HT29-MTX goblet cell lines. The experiment in a line: Oris Cell Migration assay (epithelial cell wound healing). Type of data set: cell-based, human. The conditions noted are these: 48 hours; SG-11 1 μg/ml, EGF 30 ng/ml, staurosporine 100 nM; FIG. 2. The source says:
The 96 well Oris Cell Migration assay containing plugs preventing cell attachment in the center of each well was used according to the manufacturer's instructions (Platypus Technologies. Madison, Wis.).
The migration assay plates were warmed to room temperature prior to use and plugs were removed rom 100% confluence wells prior to cell addition. The HCT8 enterocyte and HT29-MTX goblet cell lines were used at a 9:1 ratio with a total of 5×10^4 total cells added per well (4.5×10^4 HCT8 cells and 0.5×10^4 HT29-MTX cells). Cells were incubated at 37° C.+5% CO2 for 24 hours. Plugs were then removed from all control and sample wells. Control wells included cells treated with the diluent vehicle as the blank, 30 ng/ml epidermal growth factor (EGF) as the positive control, and 100 nM staurosporine as the negative control, all diluted in cRPMI. Sample wells contained SG-11 protein (SEQ ID NO:9) at a concentration of 1 μg/ml diluted in eRPMI. 100% and 0% wells were cultured in cRPMI. […] The green fluorescent viability dye Calcenin AM was added to all wells at a concentration of 0.5 μg/min PBS containing 0.9 mM CaCl2 and 0.5 mM MgCl2, incubated for 30 min at 37° C.+5% CO2, the dye was removed and cells were washed in PBS containing 0.9 mM CaCl2 and 0.5 mM MgCl2, and fluorescence was measured. […] Samples were normalized between 100% and 0% samples and values expressed as a percent growth.

The test system of data set [2] is human colonic epithelial cells (HCT8 enterocytes and HT29-MTX goblet cells). The experiment in a line: trans-epithelial electrical resistance (TEER) assay, epithelial/monocyte co-culture disrupted by heat killed E. coli. The class given is cell-based. The note with it: staurosporine 100 nM, control compound. The protocol:
Assays were performed as described below in trans-well plates where co-cultures of multiple cell types were performed utilizing a permeable membrane to separate cells. In the apical (top) chamber, human colonic epithelial cells, consisting of a mixture of enterocytes and goblet cells, were cultured until cells obtained tight junction formation and barrier function capacity as assessed by measurement of trans-epithelial electrical resistance (TEER). In the basolateral chamber, monocytes were cultured separately. Epithelial […] were primed with inflammatory cytokines. The assays measured the effect of a therapeutic protein, e.g., SG-11, on epithelial barrier function, muc2 gene expression, and production of cytokines.
Cell culture. The HCT8 human enterocyte cell line (ATCC Cat. No. CCL-244) was maintained in RPMI-1640 medium supplemented with 10% fetal bovine seam, 100 IU/ml penicillin, 100 ? g/ml streptomycin, 10 ? g/ml gentamicin and 0.25 μg/ml amphotericin (cRPMI). […]
Epithelial cell culture. […] Epithelial cells were trypsinized from culture flasks and viable cells determined by trypan blue counting. […]
Co-culture assay. […] TEER readings were measured after the IFN-© treatment and were used as the pre-treatment TEER value. […]

Data set [3] relates to C57BL/6 mice treated with DSS. Nature of the data set: concurrent (prophylactic) DSS model of inflammatory bowel disease (Examples 4, 13A). Type of data set: in vivo. The conditions noted are these: Example 4; 50 nmoles/kg i.p. b.i.d. The protocol: On day six, mice were fasted for four hours and then orally gavaged with 600 mg/kg 4KDa dextran labeled with fluorescein isothiocyanate (FITC) [4KDa-FITC]. One hour after the 4KDa-FITC gavage, mice were euthanized, blood was collected, and FITC signal was measured in serum. […] The magnitude of 4KDa-FITC dextran translocation observed for SG-11 was similar to the positive control of Gly2-GLP2. Results are shown in FIG. 3, and are presented as mean±SEM. The graph in FIG. 3 represents data pooled from 3 independent experiments, each using 10 mice (n=30).
SG-11 was also assessed for its effects on the levels of lipopolysaccharide (LPS) binding protein (LBP) in the blood of the DSS animal with and without SG-11 administration. LBP, which has been linked to clinical disease activity in subjects with inflammatory bowel disease, was also measured by […] in the serum of mice tested in the DSS model described in this Example. […] Results are shown in FIG. 4, and are presented as mean±SEM. The graph in FIG. 4 represents data pooled from 3 independent experiments (n=30; each experiment using 10 mice).
Body weight was measured daily from mice included in the DSS model described in this Example. Percent change from starting weight on day 0 was determined for each mouse. […]
Colon length was measured in mice included in the DSS model described above. […]

Data set [4] has as its system C57BL/6 mice treated with DSS. The experiment in a line: therapeutic DSS model of inflammatory bowel disease, treatment after 7 days DSS (Examples 5, 13B). The class given is in vivo. As for the experimental part:
Following a 7-day acclimation period, the mice were provided with drinking water containing 2.5% DSS for 7 days. Fresh 2.5% DSS water was prepared every 2 days during the 7 day DSS administration. For this therapeutic DSS study, SG-11 used to treat the animals was fused at its N-terminus to a FLAG Tag (DYKDDDDK; SEQ ID NO:32).
On day 7, normal drinking water was restored and i.p. treatments of 50 nmole/kg of SG-11 ([…]) or Gly2-GLP2 (0.2 mg/kg) were initiated. Treatments were administered twice a day (b.i.d.), with a morning and evening dose (every 8 and 16 hours) for six days.
Body weight was measured daily during the morning treatment. The colon tissue was then harvested and length was measured in centimeters and the tissue was weighed. Fecal material was flushed from the colon and residual PBS removed by gently running the colon tissue through a pair of forceps. The colon tissue was then weighed and colon weight to length ratio in mg/mm was determined. Following weight measurements proximal and distal colon tissue was banked for RNA and protein analysis and the remaining tissues was fixed in 10% neutral buffered formalin for histopathology. Statistical analysis was performed by a one-way ANOVA compared to DSS+vehicle for serum 4KDa-FITC translocation, scrum LBP concentrations, colon length, and colon weight to length ratio, while a two-way ANOVA was performed for analysis of body weight. In all analysis, a Fisher's LSD test for multiple comparisons was used. Graphs represent data pooled from two experiments, and are plotted as mean±SEM.
Histopathology analysis was performed on proximal and distal colon tissues from the therapeutic DSS model described above. Proximal (FIG. 13A) and distal (FIG. 13B) colon scores (range 0-4) are presented as well as the total score for the colon which represents the sum of proximal and distal colon scores (Range 0-8) (FIG. 13C). LMA=Loss of mucosal architecture, Edema=Edema, INF=Inflammation, TMI=Transmural inflammation, MH=Mucosal hyperplasia, DYS=Dysplasia. Graphs represent data pooled from two independent experiments, and are plotted as mean±SEM. Statistical analysis was performed by a one-way ANOVA compared to DSS+vehicle followed by a Fisher's LSD test for multiple comparisons. […]
At the end of each DSS model study, mice were fasted for 4 hours and then orally gavaged with 600 mg/kg 4KDa dextran labeled with FITC [4KDa-FITC]. One hour after the 4KDa-FITC gavage, mice were euthanized, blood was collected, and FITC signal was measured in serum. […]
Upon completion of the OSS models above. LBP levels were measured as an inflammation centric readout of barrier function following the protocol detailed in Example 5. […] LPS binding protein (LBP) levels were measured in serum using a commercially available ELISA Kit (Enzo Lift Sciences).

The conditions of data set [5]: mouse, in vivo, ip.
Protocol: Eight-week old C57BL/6 mice were housed 5 animals per cage and given food and water ad libitum for 7 days. Following the 7-day acclimation period, treatments were initiated concurrently with addition of 2.5% DSS to the drinking water. […] The mice were treated with 2.5% DSS in their drinking water for 6 days. […] Fresh 2.5% DSS drinking water was prepared every 2 days.

For `CN[C@@H]1C[C@H]2O[C@@](C)([C@@H]1OC)n1c3ccccc3c3c4c(c5c6ccccc6n2c5c31)C(=O)NC4` [staurosporine, reference compound], the “percent growth (epithelial cell wound healing)” value in data set [1] is “suppressing cell proliferation”. Also, in data set [2], the TEER entry is listed as “drastic decrease in TEER”.
With Gly2-GLP2 [reference compound], in data set [3], the colon length result was “significant improvement in colon length” and the “colon weight to length ratio” value is on record as “significant improvement in colon weight to length ratios”. Further, in data set [4] (Example 5), the “histopathology: inflammation and transmural inflammation scores” value is recorded as “no change”; the “histopathology: loss of mucosal architecture score” value is “modest, but significant reduction”. Moreover, the “serum LBP” value in data set [4] (Example 5, 50 nmole/kg i.p. b.i.d. six days after 7 days DSS, FLAG-tagged SG-11) was “no reduction in LBP”. In data set [4] (Example 13B, p<0.01), the “colon weight to length ratio” value was “did not”.
In the case of “fluorescently labeled bovine serum albumin: fluorescently labeled bovine serum albumin used for tracking studies”, the “time at which protein reached the colon” value in data set [5] was 6 h.
In the case of “EGF: epidermal growth factor, positive control (NSDSECPLSHDGYCLHDGVCMYIEALDKYACNCVVGYIGERCQYRDLKWWELR; UniProt P01133 971-1023, looked up)”, the “percent growth (epithelial cell wound healing)” value in data set [1] is reported as “increasing proliferation”.
